Numbers after ± are expanded uncertainties.
Experiment: refractive index (Na D-line) (dimensionless)
Settings: 293.1 K; 101.33 kPa; Liquid; Standard Abbe refractometry

Row | Structure (SMILES) | refractive index
1 | O=CN1CCOCC1 [N-formylmorpholine] | 1.484 ± 0.0007
2 | CC1CCCCC1 [methylcyclohexane] | 1.423 ± 0.0007

Source: the NIST ThermoML archive (doi:10.1016/j.fluid.2007.03.013)
